The subject of the test is P388 leukemia ip, CD2F1 mice, survival T/C. Briefly: NCI In Vivo Anticancer Drug Screen. Data for tumor model P388 Leukemia (intraperitoneal) in CD2F1 (CDF1) mice. The settings on record: endpoint: median survival time, higher = longer survival. In short, it runs like this:
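Mice carrying the transplanted tumor received test compound or vehicle. Survival was recorded in each group, and the value is the treated-group measurement divided by that of the vehicle-treated control group.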

[1] abbreviates: dose: 50.0 mg/kg/injection, schedule: Q01DX005 (ip), vehicle: Klucel (hydroxypropylcellulose) (HPC).
[2] abbreviates: dose: 100.0 mg/kg/injection, schedule: Q01DX005 (ip), vehicle: Klucel (hydroxypropylcellulose) (HPC).
Where [3] appears, read: dose: 200.0 mg/kg/injection, schedule: Q01DX005 (ip), vehicle: Klucel (hydroxypropylcellulose) (HPC).
Where [4] appears, read: dose: 100.0 mg/kg/injection, schedule: Q04DX002 (ip), vehicle: saline with Tween-80.
Setting [5] is: dose: 200.0 mg/kg/injection, schedule: Q04DX002 (ip), vehicle: saline with Tween-80.
Setting [6] is: dose: 400.0 mg/kg/injection, schedule: Q04DX002 (ip), vehicle: saline with Tween-80.
Where [7] appears, read: dose: 50.0 mg/kg/injection, schedule: Q01DX005 (ip), vehicle: saline with Tween-80.
[8] abbreviates: dose: 100.0 mg/kg/injection, schedule: Q01DX005 (ip), vehicle: saline with Tween-80.
Setting [9] is: dose: 200.0 mg/kg/injection, schedule: Q01DX005 (ip), vehicle: saline with Tween-80.
Setting [10] is: dose: 25.0 mg/kg/injection, schedule: Q01DX009 (ip), vehicle: saline with Tween-80.
[11] abbreviates: dose: 60.0 mg/kg/injection, schedule: Q01DX005 (ip), vehicle: Klucel (hydroxypropylcellulose) (HPC).
[12] abbreviates: dose: 120.0 mg/kg/injection, schedule: Q01DX005 (ip), vehicle: Klucel (hydroxypropylcellulose) (HPC).
The mark [13] stands for this setting: dose: 12.5 mg/kg/injection, schedule: Q01DX001 (ip), vehicle: saline.
Where [14] appears, read: dose: 25.0 mg/kg/injection, schedule: Q01DX001 (ip), vehicle: saline.
Where [15] appears, read: dose: 50.0 mg/kg/injection, schedule: Q01DX001 (ip), vehicle: saline.
Setting [16] is: dose: 60.0 mg/kg/injection, schedule: Q01DX005 (ip), vehicle: saline with Tween-80.
Where [17] appears, read: dose: 120.0 mg/kg/injection, schedule: Q01DX005 (ip), vehicle: saline with Tween-80.
Where [18] appears, read: dose: 240.0 mg/kg/injection, schedule: Q01DX005 (ip), vehicle: saline with Tween-80.

Consider 25 compounds from PubChem BioAssay AID330 (DTP/NCI, 2004).

Where “and” joins values, the source holds several entries; their conditions need not be identical. Equal values may be shown once. Inconclusive results and toxic doses are left out.

On to `CCOC(=O)Cc1c[nH]c2ccc(N(CCO)CCO)cc12`, for which the T/C was 101 % of control (dose: 25.0 mg/kg/injection, schedule: Q01DX005 (ip), vehicle: Klucel (hydroxypropylcellulose) (HPC)); 102 % of control under setting [1]; 102 % of control under setting [2]; 98 % of control under setting [3].
Take `Oc1ccc(C2C=CCC2)cc1C1C=CCC1` (centres undefined): the T/C was 106 % of control (dose: 100.0 mg/kg/injection, schedule: Q01DX009 (ip), vehicle: Klucel (hydroxypropylcellulose) (HPC)); 116 % of control (dose: 200.0 mg/kg/injection, schedule: Q01DX009 (ip), vehicle: Klucel (hydroxypropylcellulose) (HPC)); 115 % of control (dose: 400.0 mg/kg/injection, schedule: Q01DX009 (ip), vehicle: Klucel (hydroxypropylcellulose) (HPC)).
As to `CNc1nc(SC)nc2c1ncn2C1CCCO1` (centres undefined), the T/C was 98 % of control under setting [4], 95 % of control under setting [5] and 95 % of control under setting [6].
As for `CCCCCCCCCCCC(=O)NCCOCCOCCOCCOCCOCCOCCOCCOCCO` (tested in a mixture with another compound), the T/C was 98 % of control under setting [7], 102 % of control under setting [8] and 96 % of control under setting [9].
Consider `O=CNNC(=O)c1cnccn1`, for which the T/C runs as follows: (dose: 89.0 mg/kg/injection, schedule: Q01DX009 (ip), vehicle: water) 109 % of control; (dose: 133.0 mg/kg/injection, schedule: Q01DX009 (ip), vehicle: water) 100 % of control; (dose: 200.0 mg/kg/injection, schedule: Q01DX009 (ip), vehicle: water) 118 % of control.
With `COC(=O)Nc1ccc(Cc2ccc(NC(=O)OC)cc2)cc1`, the T/C under setting [10] was 101 % of control and 104 % of control.
Regarding `C=CC(=C)C1(O)c2ccccc2C(=O)N1C` (centres undefined), the T/C is, setting by setting: under setting [11], 106 % of control; under setting [12], 109 % of control.
For the compound `COc1ccc(NC(=O)N2CCOCC2)cc1`, the T/C reads like this: (dose: 50.0 mg/kg/injection, schedule: Q01DX009 (ip), vehicle: saline) 92 % of control; (dose: 100.0 mg/kg/injection, schedule: Q01DX009 (ip), vehicle: saline) 92 % of control; (dose: 200.0 mg/kg/injection, schedule: Q01DX009 (ip), vehicle: saline) 88 % of control.
Regarding `CCOC(=O)CC12C=CC(CC(=O)OCC)(CC1)n1c(=O)n(C)c(=O)n12`, the T/C by setting is: under setting [4], 100 % of control; under setting [5], 100 % of control; under setting [6], 101 % of control.
Turning to `CCCCCCC(C)N=[N+]([O-])CBr` (centres undefined), the T/C is, setting by setting: (dose: 100.0 mg/kg/injection, schedule: Q01DX001 (ip), vehicle: other) 114 % of control; (dose: 200.0 mg/kg/injection, schedule: Q01DX001 (ip), vehicle: other) 111 % of control; (dose: 400.0 mg/kg/injection, schedule: Q01DX001 (ip), vehicle: other) 103 % of control.
`CC1C(=O)OC23CC(C)(C)C4OC42C(C)CCC13O` (centres undefined): the T/C by setting is: (dose: 0.37 mg/kg/injection, schedule: Q01DX009 (ip), vehicle: saline) 93 % of control; (dose: 0.75 mg/kg/injection, schedule: Q01DX009 (ip), vehicle: saline) 99 % of control; (dose: 1.5 mg/kg/injection, schedule: Q01DX009 (ip), vehicle: saline) 97 % of control; (dose: 3.0 mg/kg/injection, schedule: Q01DX009 (ip), vehicle: saline) 99 % of control.
For the compound `NNc1ncnc2c1ncn2C1OC(CO)C(O)C1O` (centres undefined), the T/C runs as follows: (dose: 19.8 mg/kg/injection, schedule: Q01DX009 (ip), vehicle: saline) 120 % of control; (dose: 30.0 mg/kg/injection, schedule: Q01DX009 (ip), vehicle: saline) 150 % of control; (dose: 45.0 mg/kg/injection, schedule: Q01DX009 (ip), vehicle: saline) 160 % of control; (dose: 50.0 mg/kg/injection, schedule: Q01DX009 (ip), vehicle: saline with Tween-80) 120 % of control; (dose: 66.0 mg/kg/injection, schedule: Q01DX009 (ip), vehicle: saline with Tween-80) 112 % of control; (dose: 100.0 mg/kg/injection, schedule: Q01DX009 (ip), vehicle: saline with Tween-80) 163 % of control. For the same compound, the T/C is, setting by setting: (dose: 100.0 mg/kg/injection, schedule: Q04DX003 (ip), vehicle: saline) 118 % of control; (dose: 200.0 mg/kg/injection, schedule: Q04DX003 (ip), vehicle: saline) 86 % of control.
For `COS(=O)(=O)OC1(SC)C=C(c2ccccc2)SS1` (centres undefined), the T/C was 96 % of control under setting [13]; 109 % of control and 121 % of control under setting [14]; 118 % of control and 122 % of control under setting [15].
Consider `Cc1nc2c([N+](=O)[O-])c(N3CCN(C)CC3)c([N+](=O)[O-])cc2[nH]1`, for which the T/C runs as follows: (dose: 12.5 mg/kg/injection, schedule: Q04DX003 (ip), vehicle: saline with Tween-80) 95 % of control; (dose: 25.0 mg/kg/injection, schedule: Q04DX003 (ip), vehicle: saline with Tween-80) 106 % of control; (dose: 50.0 mg/kg/injection, schedule: Q04DX003 (ip), vehicle: saline with Tween-80) 100 % of control and 90 % of control; (dose: 100.0 mg/kg/injection, schedule: Q04DX003 (ip), vehicle: saline with Tween-80) 104 % of control.
Regarding `CC(=O)OCC1OC(OC(C)=O)C(NC(=S)NCC(=O)c2ccc(C)cc2)C(OC(C)=O)C1OC(C)=O` (centres undefined), the T/C reads like this: under setting [7], 99 % of control; under setting [8], 100 % of control; under setting [9], 101 % of control.
Take `COc1ccc(-c2cn(-c3ccc(OC)cc3)c3ncnc(N)c23)cc1`: the T/C was 102 % of control under setting [16], 100 % of control under setting [17] and 96 % of control under setting [18].
With `O=C1COC(c2ccccc2O)=NN1CCCN1CCCC1`, the T/C is, setting by setting: under setting [13], 100 % of control; under setting [14], 100 % of control; under setting [15], 107 % of control; (dose: 100.0 mg/kg/injection, schedule: Q01DX001 (ip), vehicle: saline) 103 % of control.
Consider `C=C1CN(CCc2ccccc2)C(=S)S1`, for which the T/C reads like this: under setting [16], 101 % of control; under setting [17], 102 % of control; under setting [18], 102 % of control.
With `CCOP(=S)(N/N=C(\C)c1ccc(C)s1)OCC`, the T/C is, setting by setting: under setting [1], 104 % of control; under setting [2], 113 % of control; under setting [3], 114 % of control.
For `CC(C)CC(NC(c1ccccc1)(c1ccccc1)c1ccccc1)C(=O)O` (centres undefined), the T/C under setting [11] is 103 % of control and the T/C under setting [12] is 106 % of control.
Take `ClC1COc2cc(c3ccccc3c2)-c2c(ccc3ccccc23)OCCOCCOc2ccc3ccccc3c2-c2c(ccc3ccccc23)OCC(Cl)O1` (centres undefined): the T/C was 102 % of control under setting [4], 102 % of control under setting [5] and 105 % of control under setting [6].
In the case of `CC(C)C(C/C(=N\Nc1ccc([N+](=O)[O-])cc1[N+](=O)[O-])C1CC1)C(=O)O` (centres undefined), the T/C runs as follows: (dose: 25.0 mg/kg/injection, schedule: Q01DX005 (ip), vehicle: saline with Tween-80) 105 % of control; under setting [7], 96 % of control; under setting [8], 89 % of control.
For `NCCc1cc(=O)[nH]o1`, the T/C reads like this: (dose: 50.0 mg/kg/injection, schedule: Q01DX009 (ip), vehicle: suspension in saline) 90 % of control; (dose: 100.0 mg/kg/injection, schedule: Q01DX009 (ip), vehicle: suspension in saline) 90 % of control; (dose: 200.0 mg/kg/injection, schedule: Q01DX009 (ip), vehicle: suspension in saline) 91 % of control.
Consider `CCCCCCCCCCCCCCCC(=O)N1CCN(C)CC1`, for which the T/C under setting [10] is 115 % of control.
Turning to `CC(C)(C)N1CC1CNC(=O)C(=O)NCC1CN1C(C)(C)C` (centres undefined), the T/C is 165 % of control (dose: 3.12 mg/kg/injection, schedule: Q01DX009 (ip), vehicle: saline with Tween-80); 194 % of control and 203 % of control (dose: 6.25 mg/kg/injection, schedule: Q01DX009 (ip), vehicle: saline with Tween-80); 256 % of control and 277 % of control (dose: 12.5 mg/kg/injection, schedule: Q01DX009 (ip), vehicle: saline with Tween-80); 177 % of control under setting [10].
